# Publication PMC6328428, “Synthesis, Urease Inhibition and Molecular Modelling Studies of Novel Derivatives of the Naturally Occurring β-Amyrenone” (Natural Products and Bioprospecting, 2018)
# What was measured:
# Jack bean Urease = target: T1, Jack bean Urease (Canavalia ensiformis, UniProt P07374); test: biochemical
# T1 construct: purchased Sigma
# Description: Urease activity was obtained by measuring ammonia production using the indophenol method as described by Bankeu et al., (2017). […] Reaction mixtures with 25 μL of enzyme (Jack bean Urease bought from Sigma) solution and 55 μL of buffers containing 100 mM urea were incubated with 5 μL of compounds 1—4 (1 mM concentration) at 30 °C for 15 min in 96-well plates. In fact, 45 μL each of phenol reagent (1% w/v phenol and 0.005% w/v sodium nitroprusside) and 70 μL of alkali reagent (0.5% w/v NaOH and 0.1% active chloride NaOCl) were added to each well. The absorbance at 630 nm was recorded after 50 min, using a microplate reader (Molecular Device, USA). All reactions were performed in triplicate in a final volume of 200 μL. The results (change in absorbance per min) were processed by using Soft Max Pro software (Molecular Device, USA). All the assays were performed at pH 8.2 (0.01 M K2HPO4·3H2O, 1 mM EDTA and 0.01 M LiCl). Percentage inhibitions were calculated from the formula (Eq. 1):1 Urease inhibition%=100-ODtest/ODcontrol×100 where OD stands for optical density.
# Urease inhibition percentages were used to determine the concentration that inhibit 50% of urease activity (IC50) using GraphPad Prism 5.0, USA.
# The resulting data are shown as mean ± SD of three independent assays. One way one analysis of variance (ANOVA) was carried out for the determination of difference between groups (GraphPad Prism 5.0, USA). […] was considered as significant.
# T1 sequence (P07374 whole entry, looked up): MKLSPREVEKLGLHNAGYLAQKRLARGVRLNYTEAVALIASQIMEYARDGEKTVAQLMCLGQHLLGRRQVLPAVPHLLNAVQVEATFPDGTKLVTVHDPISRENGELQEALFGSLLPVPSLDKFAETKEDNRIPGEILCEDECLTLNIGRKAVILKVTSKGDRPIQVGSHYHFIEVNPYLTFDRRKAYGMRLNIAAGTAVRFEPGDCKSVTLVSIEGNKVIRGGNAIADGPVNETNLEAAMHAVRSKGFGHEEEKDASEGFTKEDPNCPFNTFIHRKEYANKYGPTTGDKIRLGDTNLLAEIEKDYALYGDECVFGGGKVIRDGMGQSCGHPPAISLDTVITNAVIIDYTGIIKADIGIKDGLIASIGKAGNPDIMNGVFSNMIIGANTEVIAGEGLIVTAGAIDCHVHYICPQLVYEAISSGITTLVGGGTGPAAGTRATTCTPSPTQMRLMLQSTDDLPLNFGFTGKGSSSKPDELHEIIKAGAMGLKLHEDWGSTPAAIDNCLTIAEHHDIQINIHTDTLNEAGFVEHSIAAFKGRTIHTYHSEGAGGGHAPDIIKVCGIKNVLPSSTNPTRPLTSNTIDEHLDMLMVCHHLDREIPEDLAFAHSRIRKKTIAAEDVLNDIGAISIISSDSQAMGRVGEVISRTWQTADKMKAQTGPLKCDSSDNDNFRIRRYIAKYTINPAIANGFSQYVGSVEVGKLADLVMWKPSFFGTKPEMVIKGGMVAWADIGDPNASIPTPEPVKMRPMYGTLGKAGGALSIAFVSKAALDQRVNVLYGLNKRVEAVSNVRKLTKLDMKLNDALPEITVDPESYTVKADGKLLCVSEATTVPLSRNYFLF
SMILES,IC50 (Jack bean Urease),melting point
"CC1(C)CC[C@]2(C)CC[C@]3(C)C(=CCC4[C@@]5(C)CCC(=O)C(C)(C)[C@@H]5CC[C@]43C)[C@H]2C1 (stereo partly drawn) [Compound 1, β-Amyrenone]",14.5 ± 0.21 µM,–
"CC1(C)CCC2(C)CCC3(C)C(=CCC4C5(C)CC/C(=N\Nc6ccc([N+](=O)[O-])cc6[N+](=O)[O-])C(C)(C)C5CCC43C)C2C1 (centres unmarked) [Compound 2, (E)-1-(2,4-Dinitrophenyl)-2-(4,4,6a,6b,8a,11,11,14b-octamethyl-1,4,4a,5,6,6a,6b,7,8,8a,9,10,11,12,12a,14,14a,14b-octadecahydropicen-3(2H)-ylidene)hydrazine]",24.6 ± 0.17 µM,260 °C
"COc1ccc2[nH]c3c(c2c1)C[C@]1(C)C2CC=C4[C@H]5CC(C)(C)CC[C@]5(C)CC[C@@]4(C)[C@]2(C)CC[C@H]1C3(C)C (stereo partly drawn) [Compound 3, (4aR,6aS,6bR,8aR,15aR,17bS)-13-Methoxy-2,2,4a,6a,6b,9,9,15a-octamethyl-2,3,4,4a,5,6,6a,6b,7,8,8a,9,10,15,15a,15b,16,17b-octadecahydro-1H-chryseno[2,1-b]carbazole]",22.2 ± 0.9 µM,–
"CC1(C)CC[C@]2(C)CC[C@]3(C)C(=CCC4[C@@]5(C)Cc6c([nH]c7ccccc67)C(C)(C)[C@@H]5CC[C@]43C)[C@H]2C1 (stereo partly drawn) [Compound 4, (4aR,6aS,6bR,8aR,15aR,17bS)-2,2,4a,6a,6b,9,9,15a-Octamethyl-2,3,4,4a,5,6,6a,6b,7,8,8a,9,10,15,15a,15b,16,17b-octadecahydro-1H-chryseno[2,1-b]carbazole]",17.9 ± 0.45 µM,–
